Experiments:
barnyardgrass [1] = experiment: Test A preemergence; type: in vivo, Echinochloa crus-galli; conditions: for Barnyardgrass plant response rating (0 to 100 scale, 0 is no effect, 100 is complete control): 125 g ai/ha
How it was run: (§1)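 Greenhouse pot test, loam/sand soil. Formulation: non-phytotoxic solvent mix plus surfactant. Pre: directed spray onto soil after sowing. Post: plants at 1–2 leaf, 2–10 cm. Rated visually vs untreated controls at ~10 d, 0 (no effect) to 100 (complete control).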

pigweed [2] = experiment: Test A preemergence; type: in vivo, Amaranthus retroflexus; conditions: for Pigweed plant response rating (0 to 100 scale): 125 g ai/ha
How it was run: as §1

wheat = experiment: Test A postemergence; type: in vivo, Triticum aestivum
How it was run: as §1

Heteranthera limosa = experiment: Test B flooded paddy test; type: in vivo; conditions: Flood, 250 g ai/ha; 0 to 100 scale where 0 is no effect and 100 is complete control
How it was run: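 Scores from 0 (no effect) to 100 (complete control) are visual comparisons with controls, taken 13 to 15 days after compound was applied into floodwater 3 cm deep around 2-leaf plants.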

blackgrass = experiment: Test C postemergence; type: in vivo, Alopecurus myosuroides; conditions: for Plant response rating (0 to 100), Blackgrass: 16 g ai/ha, 0 is no effect, 100 is complete control; for Blackgrass plant response rating: 31 g ai/ha; for Blackgrass plant response rating / Plant response rating, Blackgrass: scale 0 to 100 (0 no effect, 100 complete control)
How it was run: (§2)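 Injury was assessed visually against controls 13 to 15 days after application, with 0 meaning no effect and 100 full control; missing entries are shown as a dash. Preemergence sprays hit seeded loam–sand soil, postemergence sprays hit 1- to 4-leaf plants.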

morningglory = experiment: Test C postemergence; type: in vivo, Ipomoea coccinea; conditions: for Plant response rating (0 to 100), Morningglory: 16 g ai/ha, 0 is no effect, 100 is complete control; for Morningglory plant response rating: 31 g ai/ha; for Morningglory plant response rating / Plant response rating, Morningglory: scale 0 to 100 (0 no effect, 100 complete control)
How it was run: as §2

pigweed [3] = experiment: Test C postemergence; type: in vivo, Amaranthus retroflexus; conditions: for Plant response rating (0 to 100), Pigweed: 16 g ai/ha, 0 is no effect, 100 is complete control; for Pigweed plant response rating: 31 g ai/ha; for Pigweed plant response rating / Plant response rating, Pigweed: scale 0 to 100 (0 no effect, 100 complete control)
How it was run: as §2

ragweed = experiment: Test C postemergence; type: in vivo, Ambrosia elatior; conditions: for Plant response rating (0 to 100), Ragweed: 16 g ai/ha, 0 is no effect, 100 is complete control; for Ragweed plant response rating: 31 g ai/ha; for Ragweed plant response rating / Plant response rating, Ragweed: scale 0 to 100 (0 no effect, 100 complete control)
How it was run: as §2

barnyardgrass [4] = experiment: Test C postemergence; type: in vivo, Echinochloa crus-galli; conditions: for Plant response rating (0 to 100), Barnyardgrass: 16 g ai/ha, 0 is no effect, 100 is complete control; for Barnyardgrass plant response rating: 31 g ai/ha, 13 to 15 days; for Barnyardgrass plant response rating / Plant response rating, Barnyardgrass: scale 0 to 100 (0 no effect, 100 complete control)
How it was run: as §2

kochia = experiment: Test C postemergence; type: in vivo, Kochia scoparia; conditions: for Plant response rating (0 to 100), Kochia: 16 g ai/ha, 0 is no effect, 100 is complete control; for Kochia plant response rating: 31 g ai/ha; for Kochia plant response rating / Plant response rating, Kochia: scale 0 to 100 (0 no effect, 100 complete control)
How it was run: as §2

wild oat = experiment: Test C postemergence; type: in vivo, Avena fatua; conditions: for Plant response rating (0 to 100), Oat, Wild: 16 g ai/ha, 0 is no effect, 100 is complete control; for Oat, Wild plant response rating: 31 g ai/ha; for Oat, Wild plant response rating / Plant response rating, Oat, Wild: scale 0 to 100 (0 no effect, 100 complete control)
How it was run: as §2

velvetleaf = experiment: Test C postemergence; type: in vivo, Abutilon theophrasti; conditions: for Plant response rating (0 to 100), Velvetleaf: 16 g ai/ha, 0 is no effect, 100 is complete control; for Velvetleaf plant response rating: 31 g ai/ha; for Velvetleaf plant response rating / Plant response rating, Velvetleaf: scale 0 to 100 (0 no effect, 100 complete control)
How it was run: as §2

[5] = 500 g ai/ha, 0 to 100 scale where 0 is no effect and 100 is complete control
[6] = 125 g ai/ha, 0 to 100 scale, 0 no effect, 100 complete control
[7] = postemergence, visual rating, 13 to 15 days
[8] = 125 g ai/ha, postemergence, visual rating
[9] = Postemergence, 62 g ai/ha, 13 to 15 days
[10] = 31 g ai/ha, 0 to 100 scale where 0 is no effect and 100 is complete control, visual, approximately 10 days

Structure (SMILES): N#Cc1cnn(-c2c(Oc3ncc(F)cn3)cccc2C(F)F)c1 [Compound 240]
- Barnyardgrass plant response rating (0 to 100 scale, 0 is no effect, 100 is complete control) (barnyardgrass [1]): 90
- Barnyardgrass plant response rating (barnyardgrass [1]; [5]): 100
- Pigweed plant response rating (0 to 100 scale) (pigweed [2]): 100
- Pigweed plant response rating (pigweed [2]; [5]): 100
- Plant response rating, Wheat (wheat; [6]): 30
- Plant response rating, Wheat (wheat; [5]): 90
- Plant response rating, Ducksalad (Heteranthera limosa): 50
- Plant response rating (0 to 100), Blackgrass (blackgrass; postemergence): 0
- Blackgrass plant response rating (blackgrass; [7]): 0
- Plant response rating, Blackgrass (blackgrass; [8]): 5
- Plant response rating, Blackgrass (blackgrass; [9]): 0
- Plant response rating (0 to 100), Morningglory (morningglory; postemergence): 30
- Morningglory plant response rating (morningglory; [7]): 65
- Plant response rating, Morningglory (morningglory; [8]): 90
- Plant response rating, Morningglory (morningglory; [9]): 75
- Plant response rating (0 to 100), Pigweed (pigweed [3]; postemergence): 15
- Pigweed plant response rating (pigweed [3]; [7]): 30
- Plant response rating, Pigweed (pigweed [3]; [8]): 75
- Plant response rating, Pigweed (pigweed [3]; [9]): 45
- Plant response rating (0 to 100), Ragweed (ragweed; postemergence): 35
- Ragweed plant response rating (ragweed; [7]): 40
- Plant response rating, Ragweed (ragweed; [8]): 75
- Plant response rating, Ragweed (ragweed; [9]): 55
- Plant response rating (0 to 100), Barnyardgrass (barnyardgrass [4]; postemergence): 0
- Barnyardgrass plant response rating (barnyardgrass [4]; postemergence, visual rating): 10
- Plant response rating, Barnyardgrass (barnyardgrass [4]; [8]): 20
- Plant response rating, Barnyardgrass (barnyardgrass [4]; Postemergence, 62 g ai/ha): 10
- Plant response rating (0 to 100), Kochia (kochia; postemergence): 40
- Kochia plant response rating (kochia; [7]): 45
- Plant response rating, Kochia (kochia; [8]): 90
- Plant response rating, Kochia (kochia; [9]): 45
- Plant response rating (0 to 100), Oat, Wild (wild oat; postemergence): 0
- Oat, Wild plant response rating (wild oat; [7]): 0
- Plant response rating, Oat, Wild (wild oat; [8]): 0
- Plant response rating, Oat, Wild (wild oat; [9]): 0
- Plant response rating (0 to 100), Velvetleaf (velvetleaf; postemergence): 10
- Velvetleaf plant response rating (velvetleaf; [7]): 25
- Plant response rating, Velvetleaf (velvetleaf; [8]): 80
- Plant response rating, Velvetleaf (velvetleaf; [9]): 45

Structure (SMILES): FCc1cccc(Oc2ncc(Cl)cn2)c1-n1cc(I)cn1 [Compound 245]
- Plant response rating, Barnyardgrass (barnyardgrass [1]; [10]): 0
- Barnyardgrass plant response rating (0 to 100 scale, 0 is no effect, 100 is complete control) (barnyardgrass [1]): 70
- Plant response rating, Pigweed (pigweed [2]; [10]): 90
- Pigweed plant response rating (0 to 100 scale) (pigweed [2]): 90
- Plant response rating, Wheat (wheat; 31 g ai/ha, 0 to 100 scale, 0 no effect, 100 complete control): 20
- Plant response rating, Wheat (wheat; [6]): 40
- Plant response rating, Ducksalad (Heteranthera limosa): 75
- Plant response rating (0 to 100), Blackgrass (blackgrass; postemergence): 0
- Blackgrass plant response rating (blackgrass; [7]): 0
- Plant response rating, Blackgrass (blackgrass; [8]): 5
- Plant response rating, Blackgrass (blackgrass; [9]): 5
- Plant response rating (0 to 100), Morningglory (morningglory; postemergence): 5
- Morningglory plant response rating (morningglory; [7]): 30
- Plant response rating, Morningglory (morningglory; [8]): 85
- Plant response rating, Morningglory (morningglory; [9]): 65
- Plant response rating (0 to 100), Pigweed (pigweed [3]; postemergence): 40
- Pigweed plant response rating (pigweed [3]; [7]): 55
- Plant response rating, Pigweed (pigweed [3]; [8]): 85
- Plant response rating, Pigweed (pigweed [3]; [9]): 75
- Plant response rating (0 to 100), Ragweed (ragweed; postemergence): 35
- Ragweed plant response rating (ragweed; [7]): 40
- Plant response rating, Ragweed (ragweed; [8]): 60
- Plant response rating, Ragweed (ragweed; [9]): 45
- Plant response rating (0 to 100), Barnyardgrass (barnyardgrass [4]; postemergence): 5
- Barnyardgrass plant response rating (barnyardgrass [4]; postemergence, visual rating): 5
- Plant response rating, Barnyardgrass (barnyardgrass [4]; [8]): 5
- Plant response rating, Barnyardgrass (barnyardgrass [4]; Postemergence, 62 g ai/ha): 5
- Plant response rating (0 to 100), Kochia (kochia; postemergence): 45
- Kochia plant response rating (kochia; [7]): 75
- Plant response rating, Kochia (kochia; [8]): 98
- Plant response rating, Kochia (kochia; [9]): 90
- Plant response rating (0 to 100), Oat, Wild (wild oat; postemergence): 0
- Oat, Wild plant response rating (wild oat; [7]): 0
- Plant response rating, Oat, Wild (wild oat; [8]): 5
- Plant response rating, Oat, Wild (wild oat; [9]): 5
- Plant response rating (0 to 100), Velvetleaf (velvetleaf; postemergence): 5
- Velvetleaf plant response rating (velvetleaf; [7]): 10
- Plant response rating, Velvetleaf (velvetleaf; [8]): 55
- Plant response rating, Velvetleaf (velvetleaf; [9]): 35
